Results as given in ChEMBL document CHEMBL1132795, “Stereoselective binding of an enantiomeric pair of stromelysin-1 inhibitors caused by conformational entropy factors” (Bioorg Med Chem Lett, 2000).

Tests used:
[1] = Binding affinity of compound to the stromelysin-1 catalytic domain at pH 6.0, 22 degree C
[2] = Binding affinity of compound to the stromelysin-1 catalytic domain at pH 6.7, 22 degree C

Structure (SMILES) | Kd [1] [nM] | Kd [2] [nM]
CC(C)[C@H](NS(=O)(=O)c1ccc(-c2ccc(Br)cc2)cc1)C(=O)O | 6.7 | 76.6
CC(C)[C@@H](NS(=O)(=O)c1ccc(-c2ccc(Br)cc2)cc1)C(=O)O |  | 679
